Data: US6235707A, “Anticoagulant peptidyl-arginine aldehyde derivatives” (Gyogyszerkutato Intezet Kft., priority 1996, dated 2001)
Read-outs that look alike come from different tables or passages of the source.

Assays:
[1] = system: New Zealand white rabbits; assay: ex vivo APTT in citrate plasma of rabbits after p.o. dosing; set-up: species or system rabbit; settings: p.o. 5 mg/kg
Method: (§1) The anticoagulant and platelet aggregation inhibiting effect of the compounds of general formula (I) was studied in New Zealand white rabbits ex vivo according to D. Bagdy et al. [Thromb. Haemost. 67, 357 (1992)]. The compounds were dissolved in buffered isotonic saline solution and administered i.v. (0,04-5.0 mg/kg) or by infusion (0.25-5.0 mg/kg/h) or subcutaneously (0.5-6.0 mg/kg) or p.o. (2.5-20 mg/kg). The effect of the compounds was detectable already within 30 minutes following p.o. administration, peak values were attained after 60-180 minutes and the therapeutic level was maintained dose-dependently for 3→6 hours.
(§2) The in vivo effect of ethoxycarbonyl-3-cyclobutyl-D-alanyl-L-prolyl-L-arginine aldehyde (1) is presented in detail in Tables 6 and 7. The corresponding values of C1 are listed as controls. The compound was administered p.o. in doses of 5 mg/kg. The blood samples drawn from the caudal vein in every 30-60 minutes were analysed. The whole blood clotting time (WBCT) and the inhibition of thrombin-induced blood platelet aggregation (PAI) were determined. The activated partial thromboplastin time (APTT) and the thrombin time (TT) in the citrate plasma obtained from the blood sample were also measured. The APTT and TT values are compiled in Table 6 and the WBCT and PAI values in Table 7.

[2] = system: thrombin-induced blood platelet aggregation; assay: ex vivo inhibition of thrombin-induced blood platelet aggregation (PAI) in rabbits after p.o. dosing; set-up: species or system rabbit; settings: Oryctolagus cuniculus, Platelet, po, p.o. 5 mg/kg, read-out: PAI (%), percentual inhibition of platelet aggregation
Method: as §1, §2

[3] = system: New Zealand white rabbits; assay: ex vivo TT in citrate plasma of rabbits after p.o. dosing; set-up: species or system rabbit; settings: p.o. 5 mg/kg
Method: as §1, §2

[4] = system: New Zealand white rabbits; assay: anticoagulant and platelet aggregation inhibiting effect in rabbits ex vivo, time course; set-up: species or system rabbit; settings: p.o. 5 mg/kg
Method: as §1, §2

[5] = system: citrate plasma; assay: prothrombin time (PT) plasma clotting test; type: biochemical; settings: Table 3; twofold prolongation compared to control; read-out: A: anticoagulant IC50, PT
Method: (§3) Anticoagulant activity (i.e. inhibition of the proteolytic reactions in the process) is measured by anticoagulant tests, e.g. in the thrombin time (TT), activated partial thromboplastin time (APTT) and prothrombin time (PT) tests [E. J. W. Bovie et al., Mayo Clinic Laboratory Manual of Haemostasis; W. B. Saunders Co., Philadelphia (1971)]. Plasma, inhibited in spontaneous coagulation, e.g. citrate-plasma, is made to coagulate and the required coagulation time is measured. Upon the action of anticoagulants the coagulation time is prolonged proportionally to the inhibition of the reaction(s) in the process. The anticoagulant effect can be characterised by the substance concentration required to prolong the coagulation time twofold compared to the control (IC50). The effect of anticoagulants on individual coagulant proteases is measured by the amidolytic method [R. Lottenberg et al., Methods in Enzymol. 80, 341 (1981); G. Cleason, Blood Coagulation and Fibrinolysis 5, 411 (1994)]. The isolated active factor (e.g. thrombin, fXa) and its chromogen or fluorogen peptide-amide substrate are reacted in the presence or absence of the inhibitor, resp. The enzyme inhibiting action is characterised by the inhibitory constant (IC50) measured during amidolysis.
(§4) In the TT test coagulation is initiated by the thrombin added to the citrate plasma. In the system 22 pmol/ml of thrombin is functioning and its inhibition can be measured on the fibrinogen (one of the natural substrates of thrombin) in the presence of plasma components. In the APTT and PT tests the full coagulation process takes place. Depending on the activator fX is activated either by the extrinsic or the intrinsic pathway. The generated fXa activates prothrombin to thrombin which, in turn, triggers plasma coagulation. The coagulation time is prolonged if the enzymes or one of them is inhibited by the inhibitor. In the APTT and PT tests at most 40 pmol/ml Xa can be generated (this is the full amount of factor X present in both systems) while 150 pmol/ml (APTT) and 350 pmol/ml (PT) of thrombin are generated [B. Kaiser et al., Thromb. Res. 65, 157 (1992)].
(§5) The in vitro anticoagulant effects of the compounds of general formula (I) was measured by the prothrombin time (PT), activated partial thromboplastin time (APTT) and thrombin time (TT) tests [D. Bagdy et al., Thromb. Haemost. 67, 325 (1992)]. The fxa-inhibiting effect of the compounds was also determined using the Bz-Ile-Glu-Gly-Arg-pNA chromogen substrate (see method M6).

[6] = biological target: thrombin (Homo sapiens, UniProt P00734); assay: thrombin time (TT) plasma clotting test; type: biochemical; settings: Table 3; twofold prolongation compared to control; read-out: A: anticoagulant IC50, TT
Method: as §3, §4, §5

[7] = biological target: T1, fibrin gel-bound thrombin (Homo sapiens, UniProt P00734); assay: inhibition of fibrin gel-bound thrombin (Methods M4, M5); type: biochemical; settings: human fibrinogen clotted with human thrombin; Tos-Gly-Pro-Arg-pNA substrate
T1 construct: purchased SIGMA
Method: Plasma-clot was obtained by recalcificating platelet-rich human plasma, and fibrin gel by clotting human fibrinogen with human thrombin. For the activity measures of fXa and thrombin Z-D-Arg-Gly-Arg-pNA or Tos-Gly-Pro-Arg-pNA substrates were used in agreement with Methods M1-M3.
Preparation of Fibrin Clots
a) To each reaction vessel 200 μl of human fibrinogen (SIGMA), 25 μl of 25 NIH/E/ml human thrombin (SIGMA) and 40 μl of 100 mM CaCl2 solution is placed and the mixtures are allowed to stand for 1 hour at 20-22° C. The fibrin clots are washed with isotonic NaCl-solution (3×2 ml) under gentle stirring to remove traces of thrombin and sedimented for 5 min. The effectiveness of the washing can be checked by the method M1/c.
Determination of Inhibition of Fibrin-clot Bound Thrombin
a) 0.1-1.0-10 and 100 μg/ml solutions are made from the peptide inhibitors with Hepes/NaCl buffer (0.001 M Hepes and 0.1 M NaCl, pH=7.4).
b) Measurements are continued according to M3/b.

CCOC(=O)N[C@H](CC1CCC1)C(=O)N1CCC[C@H]1C(=O)N[C@H](C=O)CCCNC(=N)N [Example 1, Ethoxycarbonyl-3-cyclobutyl-D-alanyl-L-prolyl-L-arginine aldehyde]
APTT relative clotting time ([1]; 0 min): 1.0 | APTT relative clotting time ([1]; 30 min): 1.73 ± 0.47 | APTT relative clotting time ([1]; 45 min): 1.84 ± 0.50 | APTT relative clotting time ([1]; 60 min): 1.94 ± 0.51 | APTT relative clotting time ([1]; 90 min): 1.92 ± 0.31 | APTT relative clotting time ([1]; 120 min): 1.75 ± 0.26 | APTT relative clotting time ([1]; 180 min): 1.59 ± 0.12 | APTT relative clotting time ([1]; 240 min): 1.38 ± 0.08 | APTT relative clotting time ([1]; 300 min): 1.28 ± 0.08 | inhibition at 5 mg/kg ([2]; 0 h, 0 min): 1% | inhibition at 5 mg/kg ([2]; 0.5 h, 30 min): 71.3 ± 16.6% | inhibition at 5 mg/kg ([2]; 0.75 h, 45 min): 55.8 ± 17.4% | inhibition at 5 mg/kg ([2]; 1 h, 60 min): 63.8 ± 21.2% | inhibition at 5 mg/kg ([2]; 1.5 h, 90 min): 85.6 ± 10% | inhibition at 5 mg/kg ([2]; 2 h, 120 min): 73.6 ± 19.1% | inhibition at 5 mg/kg ([2]; 3 h, 180 min): 81.8 ± 11.6% | inhibition at 5 mg/kg ([2]; 4 h, 240 min): 59.4 ± 19.1% | inhibition at 5 mg/kg ([2]; 5 h, 300 min): 75.8 ± 11.8% | TT relative clotting time ([3]; 0 min): 1.0 | TT relative clotting time ([3]; 30 min): 8.30 ± 5.67 | TT relative clotting time ([3]; 45 min): 9.04 ± 5.50 | TT relative clotting time ([3]; 60 min): 9.28 ± 5.45 | TT relative clotting time ([3]; 90 min): 13.58 ± 5.43 | TT relative clotting time ([3]; 120 min): 16.33 ± 5.89 | TT relative clotting time ([3]; 180 min): 6.95 ± 3.73 | TT relative clotting time ([3]; 240 min): 2.03 ± 0.42 | TT relative clotting time ([3]; 300 min): 1.77 ± 0.50 | duration of anticoagulant and antiaggregation effect compared to control C1 [4]: longer-lasting | IC50 [5]: 1150 nM | IC50 [6]: 110 nM | IC50 [7]: 320 nM
